According to US20090203720A1, “Methods for inhibiting cell growth” (priority 2003, published 2009):

Experiments:
CK1 isoforms = conditions: literature (refs 25,26); read-out: reported IC50 for inhibition of CK1 isoforms; cited from earlier work
CK1α = CK1α (Homo sapiens, UniProt P48729); assay: In vitro kinase assay of RXR immunoprecipitated complexes with inhibitor in the assay mixture; assay type: biochemical; conditions: RXR immunoprecipitated complexes from Compound 1-treated HEK293 Flag-RXR cells; read-out: IC50 for inhibition of phosphorylation of RXR and p160
Experimental: To determine that the kinase activity which phosphorylates RXR and p160 in the RXR complex is only contributed by CK1α, in vitro kinase assays of the RXR immunoprecipitated complexes in the presence of various concentrations of a known CK1 specific inhibitor CK1-7 (25) was performed.
The immunoprecipitated complexes were re-suspended in 15 μl of kinase assay buffer (30 mM Tris-HCl, pH 7.4 and 10 mM MgCl2). The kinase reactions were initiated by adding 2 μl of 50 μM [γ-32P]ATP (10 μCi) into the immunocomplexes, followed by incubation at 30° C. with shaking for 20 min, and terminated by adding 6 μl of 4× SDS sample loading buffer. After heating at 100° C. for 5 min, the reaction mixtures were resolved by 4-12% SDS-PAGE. The incorporation of ^32P into RXR and other proteins was determined by subjecting the gel to autoradiography.

DT40RXR cells [1] = assay: Activation of caspases 3 and 9; assay type: cell-based
Experimental: (§1) Caspase activities were measured following manufacturer's protocols and presented as fold increase in relative to control.
(§2) The sensitivity of the wild-type cells and the cells stably expressing RXR to RXR agonist treatment.

RXRα = target: T1, RXRα (Homo sapiens, UniProt P19793); assay: Ligand-dependent recruitment of protein kinase to Flag-RXRα immunocomplexes (immunoprecipitation, in vitro kinase assay); assay type: cell-based; conditions: for recruitment of protein kinase to RXR immunocomplexes: transfected HEK293 cells, ligands at 10^-6 M, 15 minutes
T1 construct: expressed in transfected cells; host or cells: HEK293
T1 sequence (P19793 1-462): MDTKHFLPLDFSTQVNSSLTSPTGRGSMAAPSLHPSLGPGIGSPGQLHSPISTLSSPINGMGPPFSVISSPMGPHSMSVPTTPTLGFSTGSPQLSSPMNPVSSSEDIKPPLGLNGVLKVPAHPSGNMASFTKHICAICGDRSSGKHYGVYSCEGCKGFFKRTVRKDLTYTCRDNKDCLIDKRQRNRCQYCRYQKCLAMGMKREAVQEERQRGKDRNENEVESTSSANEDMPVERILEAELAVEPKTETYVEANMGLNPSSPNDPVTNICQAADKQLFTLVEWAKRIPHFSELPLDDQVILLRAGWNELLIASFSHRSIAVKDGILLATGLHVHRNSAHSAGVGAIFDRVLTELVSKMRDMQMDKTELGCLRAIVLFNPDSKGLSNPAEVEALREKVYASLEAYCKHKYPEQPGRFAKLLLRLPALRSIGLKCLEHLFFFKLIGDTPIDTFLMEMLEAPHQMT
Source text: Total cell lysates were immunoprecipitated with anti-Flag antibody (M2). An aliquot of the immunocomplexes were used for the in vitro kinase reaction with [γ-^32P]ATP and separated on SDS-PAGE. The phosphorylated proteins were detected by autoradiography (right panel). To show the presence of equal amounts of RXR in the immunoprecipitates, additional aliquots of the immunocomplexes were subjected to immunoblotting with a polyclonal antibody (D20) against RXR (left panel).
In vitro kinase reaction assay was performed.

Jurkat-pSupCK1α cells = assay: Apoptotic populations in CK1α-suppressed Jurkat cells; assay type: cell-based; conditions: 3 days
Experimental: FIGS. 4J, 4K, 4L and 4M show effects of depletion of CK1α on Jurkat cells: A cell line (Jurkat-pSupCK1α) in which CK1α expression is suppressed by stably expressing SiRNA CK1α was generated from Jurkat cells (left panel). The effect of COMPOUND-1 (4 days) on growth inhibition of Jurkat and Jurkat-pSupCK1α cells was measured (the second panel).
Based on this observation, CK1α negative regulation RXR-mediated apoptosis. HEK293RXR and Jurkat cells were used to deplete the expression of endogenous CK1α by stably transfecting CK1α RNAi expression vector. Although the depletion of endogenous CK1α in both cell lines was not very efficient, (with a 30% to 50% decrease for the expression of CK1α achieved in both cell lines) after decreasing the CK1α expression, both cell lines were becoming very sensitive to the treatment of RXR agonist in term of the cell growth inhibition (FIGS. 4J, 4K, 4L and 4M). Apoptotic cell populations of Jurkat-pSupCK1 (containing the CK1α RNAi construct) is increased compared to the parental cell lines in the presence of RXR agonist (FIGS. 4J, 4K, 4L and 4M).

[2] = tested on: DT40RXR and JurkatRXR cells; assay: Cell death/growth inhibition in RXR-overexpressing versus parental cells; assay type: cell-based; conditions: JurkatRXR vs parental cells, 3 days
Experimental: FIGS. 1A, 1B and 1C show RXR and RXR agonist dependent cell growth inhibition: DT40, DT40RXR, Jurkat, and JurkatRXR cells (5×10^3 cells/ml) were treated with various doses of AGN19424 for 3 days (the left two panels). Viable cells were counted and were presented as percentage of control (cells without treatment).
Overexpressing activated RXR may mediate growth inhibitory effects in some human carcinoma cells (17). To confirm that the effects of RXR agonists were mediated by RXR proteins and explore the molecular mechanism, two RXR stably expression cell lines were generated using B lymphoma cell (DT40) and T lymphoma cells (Jurkat cells), which are named DT40RXR and JurkatRXR (FIG. 1A, left panel).
as §2

JurkatRXR cells = assay: Apoptosis by FACS DNA content analysis (propidium iodide); assay type: cell-based; conditions: 10 nM, 3 days, 11.9% without agonist
Experimental: (§3) Cells having a DNA content less than the G1 population were considered as apoptotic cells.
(§4) For immunoblotting, proteins from cell lysates or immunoprecipitates were subjected to separation on SDS-PAGE (38). The resolved polypeptides were transferred to PVDF membrane and analyzed by immunoblotting (39). The targeted proteins were detected using the enhanced chemiluminescence immunodetection system (Amersham). DNA content analysis by FACS was performed on FACScan™ (Becton Dickinson) as described (40).

DT40RXR cells [3] = assay: as above; assay type: cell-based; conditions: 10 nM, 3 days, 10.4% without agonist
Experimental: as §3, §4

DT40 cells [4] = assay: as above; assay type: cell-based; conditions: 10 nM, 3 days, cells with DNA content less than G1, 3.5% without agonist
Experimental: as §3, §4

Jurkat cells = assay: as above; assay type: cell-based; conditions: 10 nM, 3 days, 2.8% without agonist
Experimental: as §3, §4

RXRα homodimers = assay: Transactivation assay, pRXRE-Luc (DR-1) reporter in CV-1 cells; assay type: cell-based; conditions: 10^-8 M, 16 hr, CV1 cells
Experimental: (§5) FIGS. 4A, 4B and 4C display evidence of transactivation by RXRα homodimers or RXRα:RARα heterodimers is not modulated by CK1α. For the left panel, CV1 cells were cotransfected with pFlag-RXRα, reporter plasmid pRXRE-Luc, β-galactosidase expression vector, plus increasing amount of CK1α expression vector (lane 1 and 2: 0 ng; lane 3: 50 ng; lane 4: 100 ng; lane 5: 200 ng), or sense strand CK1α or double-strand RNAi CK1α, or sense strand CK1ε or double-strand RNAi CK1ε. […] Data are presented as the activity of luciferase normalized to that of β-galactosidase activity, which served as an internal control for transfection efficiency and are the mean of three independent experiments with triplicates for each. For the middle panel, CV1 cells were cotransfected with pFlag-RXRα, pRAR-V5, reporter plasmid pRARE-Luc, β-galactosidase expression vector, plus sense strand CK1α or double-strand RNAi CK1α. […] Data are presented as the activity of luciferase normalized to that of β-galactosidase activity and are the mean of three independent experiments with triplicates for each. CK1α could efficaciously be depleted in CV-1 cells by small double-strand RNAi, judged by immunoblotting the total cell lysates with anti-CK1α antibodies (left panel).
CK1α is the smallest in the CK1 family. […] The role of CK1α in transactivation by RXR homodimers and RXR:RAR heterodimers was determined. […]

DT40 cells [5] = assay: Activation of caspases 3 and 9; assay type: cell-based
Experimental: as §1, §2

RXR-associated kinase = assay: Effect of signalling pathway modulators on RXR-associated kinase activity in RXR transfected cells; assay type: cell-based; conditions: cell treatment: anisomycin 50 μM; pathway inhibitors 1 hour; insulin 30 minutes
Experimental: (§6) The cells were stimulated with anisomycin (50 μM) and COMPOUND-1 (10^−7 M) as indicated, then the cell lysates were subjected to immunoprecipitation and in vitro kinase assay (bottom panel).
(§7) Activation of stress pathways lead to the phosphorylation of RXR (22,23), and MKK4/SEK1 is reported to associate with and phosphorylate RXR directly (23). […] Anisomycin treatment led to phosphorylation of RXR resulting in an up-shift of the RXR band on SDS-PAGE (22).
To further study the effect of signaling transduction pathways on the RXR-associated kinase activity, RXR transfected cells were incubated with inhibitors of the PI3 kinase (wortmannin), p42/44 MAPK (PD98059), or p38 MAPK pathways (SB202190 or SB203580) for 1 hour or stimulated with insulin or 10% serum for 30 minutes. RXR complexes were then isolated and the in vitro kinase assays were performed in the usual manner.

RXR:RAR heterodimers = assay: Transactivation assay, pRARE-Luc reporter in CV-1 cells; assay type: cell-based; conditions: CV-1 cells cotransfected with RXRα and RARα; 10^-7 M, 16 hr
Experimental: as §5
Similar transfection experiments were also performed using pRARE-Luc as reporter with cotransfection of RXRα and RARα. […]

MKK4 = MKK4 phosphorylation (stress pathway activation) by immunoblotting; assay type: cell-based; conditions: HEK293 transfected with RXR or RXR plus MKK4
Experimental: as §6, §7, §4

Chain of CK1α (P48729 whole entry, one chain of several): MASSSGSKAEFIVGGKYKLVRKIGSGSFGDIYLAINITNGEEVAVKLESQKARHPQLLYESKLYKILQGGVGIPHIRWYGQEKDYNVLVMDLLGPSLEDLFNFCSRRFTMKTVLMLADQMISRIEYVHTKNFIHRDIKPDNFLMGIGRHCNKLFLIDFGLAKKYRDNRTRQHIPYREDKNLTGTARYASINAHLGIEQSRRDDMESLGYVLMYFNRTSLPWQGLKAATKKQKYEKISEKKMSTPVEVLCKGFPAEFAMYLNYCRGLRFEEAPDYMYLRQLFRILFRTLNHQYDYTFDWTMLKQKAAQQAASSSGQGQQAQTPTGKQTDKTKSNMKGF

In the case of `NCCNS(=O)(=O)c1ccc(Cl)c2ccncc12` [CK1-7, N-(2-amino-ethyl)-5-chloroisoquinoline-8-sulfonamide], the IC50 (CK1 isoforms) is listed as 10 to 100 µM and the IC50 (CK1α) is listed as ~30 µM.
For `CC(/C=C/C1CC1(C)c1ccc2c(c1)C(C)(C)CCC2(C)C)=C\C(=O)O` (stereo not shown) [Compound 1], the “activation of caspases 3 and 9” value (DT40RXR cells [1]) was “activated”, the “kinase activity in Flag-RXR immunoprecipitated complex when ligand added only to the in vitro kinase reaction” value (RXRα; immunoprecipitation in absence of Compound 1, added later to kinase reaction mixture) was “could not be detected” and the “recruitment of protein kinase to RXR immunocomplexes” value (RXRα) was “contained the kinase that could phosphorylate RXR and the 160 kDa protein”. The apoptotic populations (Jurkat-pSupCK1α cells) was “dramatic increase of apoptotic populations”, the “efficacy in cell death/growth inhibition on overexpression of RXR” value [2] was “dramatically increase the efficacy” and the apoptotic cells (JurkatRXR cells) was 36.4%. It also gave an apoptotic cells (DT40RXR cells [3]) of 57.3%, an apoptotic cells (DT40 cells [4]) of 4.5% and an apoptotic cells (Jurkat cells) of 3.4%. For the same molecule, the DR-1 luciferase expression (RXRα homodimers) was “greatly stimulated”.
For `OO` [Compound H2O2, hydrogen peroxide, reference compound], the “activation of caspases 3 and 9” value (DT40RXR cells [1]) was “could activate caspases 3 and 9” and the “activation of caspases 3 and 9” value (DT40 cells [5]) was “could activate caspases 3 and 9”.
In the case of `COc1cccc(-c2cc(=O)c3ccccc3o2)c1N` [PD98059], the “effect on kinase activities in the RXR immunocomplexes” value (from here on “effect on kinase activities”) (RXR-associated kinase) is reported as “not influenced to a significant degree”.
In the case of `Oc1ccc(-c2nc(-c3ccncc3)c(-c3ccc(F)cc3)[nH]2)cc1` [SB202190], the “effect on kinase activities” value (RXR-associated kinase) is reported as “not influenced to a significant degree”.
For `C[S+]([O-])c1ccc(-c2nc(-c3ccncc3)c(-c3ccc(F)cc3)[nH]2)cc1` (stereo not shown) [SB203580], the “effect on kinase activities” value (RXR-associated kinase) was “not influenced to a significant degree”.
In the case of `C/C(=C\c1ccc(C(=O)O)cc1)c1ccc2c(c1)C(C)(C)CCC2(C)C` [TTNPB, reference compound], the “recruitment of protein kinase to RXR immunocomplexes” value (RXRα) is reported as “did not recruit the protein kinase” and the “activation of RXR:RAR heterodimers (pRARE-Luc)” value (RXR:RAR heterodimers) is reported as “activated”.
In the case of `COc1ccc(C[C@H]2NC[C@H](O)[C@H]2OC(C)=O)cc1` [anisomycin], the “phosphorylation of MKK4” value (MKK4) is reported as “increased phosphorylation of both endogenous and overexpressed MKK4” and the “effect on kinase activities” value (RXR-associated kinase) is reported as “not affected by anisomycin treatment”.
With “insulin: insulin used to stimulate RXR transfected cells for 30 minutes” the “effect on kinase activities” value (RXR-associated kinase) was “not influenced to a significant degree”.
